Here are results for 9 compounds from patent publication US11865110B2, “Thrombin inhibitors, formulations, and uses thereof” (VERSEON INTERNATIONAL CORPORATION, priority 2018, dated 2024).

Where two headings read alike, the source gives them in different places.

A short description of one data set: Mouse plasma stability. The format is in vitro ADME, mouse (CD-1). The settings on record: CD-1 mouse plasma, 37° C., time points to 160 min; read-out: Mouse Plasma Stability t1/2. Here is the method:
(§1) Alongside a positive control of propantheline bromide, 8 μL of a 1 mM solution of each test compound in DMSO was placed in two wells of a Nunc™ 96-well plate called the “dilution plate.” To one well, 392 μL of HyClone™ water was added and mixed by a pipette. To the other well, 392 μL of mouse or rat plasma stabilized with sodium citrate purchased from Innovative Research was added and mixed by a pipette. The dilution plate was kept covered to reduce solvent evaporation and heated in an incubator at 37° C. At each of the time points enumerated below, the plate was removed from the incubator and 50 μL of the test compound/water or test compound/plasma solutions were transferred to a unique, corresponding well in a “quench plate” (96-well Costar® plate) that contains 150 μL of a quench solution that contains an internal standard (20 uM diclofenac in acetonitrile). The dilution plate was then returned to the incubator. This process was performed at 0, 5, 10, 20, 40, 80, and 160 minutes from the original mixing of the test compounds with the water or plasma in the dilution plate. After the quenching of the 160-minute time point, the quench plate was then centrifuged at 4° C. at 1000×g for 10 minutes. 100 μL of the supernatant of each well were then transferred to corresponding unique wells in a “read plate” (96-well Costar® plate) that were filled with 100 μL of HyClone™ water. The plate was then sealed and analyzed via UHPLC using a 10-μL sample injection through a Phenomenex® Kinetex column pre-equilibrated with the loading buffer (95:5 water:acetonitrile). The parameters were as follows. Mobile Phase A: water, 0.025% formic acid. Mobile Phase B: acetonitrile, 0.025% formic acid. Flow Rate: 0.5 mL/min. […] Half-life (t1/2) times were computed by using a chi-square analysis to fit the peak areas to an exponential decay model for compound concentration as a function of time.

A further data set is described as follows: Rat plasma stability. The format is in vitro ADME. The conditions noted are these: Sprague-Dawley; SD rat plasma, 37° C., time points to 160 min; read-out: Rat Plasma Stability t1/2. Here is the method:
as §1

Data set [1] can be described thus: Mouse liver microsome stability. The conditions noted are these: pH 7.4; CD-1 mouse liver microsomes 0.5 mg/mL, NADPH, 37° C.; lower measurable bound 5. It is filed as in vitro ADME, mouse (CD-1). The protocol: (§2) In a 96-well Nunc™ plate, 1.5 μL of a 200 μM solution of the test compound in DMSO were placed in a well. This plate, the “Reaction Plate,” was then warmed to 37° C. in an oven. In a second 96-well Nunc™ plate, the “Quench Plate,” six wells were filled with 180 μL of an internal standard quench solution composed of 100 nM diclofenac in acetonitrile. These six wells correspond to the six time points for data collection: 0, 0.5, 5, 15, 30, and 60 minutes. “Assay Buffer” was prepared by combining 6.96 g potassium phosphate, dibasic, 1.36 g potassium phosphate, monobasic, and 0.30 g of magnesium chloride hexahydrate, then diluting to a final concentration of 500 mL in water and adjusting to pH 7.4, as needed. Assay Buffer was warmed to 37° C., and 12 mL were added to a 10-mg vial of NADPH. Then 300 μL of a 20 mg/mL liver microsome suspension were added to yield a 0.5 mg/mL liver microsome suspension. 300 μL of this liver microsome suspension was then added to the test compound solution in the Reaction Plate and mixed thoroughly with a pipette tip. At each time point, 30 μL of this mixture was transferred to the corresponding well of the Quench Plate. In between time points, the Reaction Plate was kept sealed and warmed in an incubator at 37° C. When the last time point had been completed, the quench plate was centrifuged at 4° C. at 1000×g for 10 minutes. Afterwards, 50 μL of the supernatant of each well was transferred to unique, corresponding wells of a 96-well Costar® plate, the “Analysis Plate,” filled with 150 μL of 50:50 acetonitrile:HyClone™ water. The Analysis Plate was then sealed with a pre-slit plate seal before analysis via an appropriate LCMS method with a 10 μL injection. The abstracted AUC data were then automatically plotted to calculate intrinsic clearance in μL/min/mg. This experiment was run alongside a positive and negative control. Due to the parameters of this procedure, one of skill in the art will appreciate that this assay has a lower measurable bound of 5 μL/min/mg; therefore, certain compounds have their clearances labeled as ≤5 μL/min/mg.
(In general: Liver microsomes are a subcellular fraction often used to study metabolism.)

The nature of the next data set: Mouse pharmacokinetics. The format is in vivo. The conditions noted are these: plasma, male CD-1 mice; for C0: C0 by extrapolation. The protocol:
Mouse pharmacokinetic data were generated as follows. Compounds were administered intravenously (IV) as a single dose via tail vein or orally (PO) as a single dose via gastric gavage to male CD-1 mice with weights between 18 and 25 g. Nominal doses were 1 mg/kg and 5 mg/kg for IV and PO administration, respectively. The doses for IV were formulated by dissolving the test compound in a mixture (v/v/v) of 5% N,N-dimethylacetamide (DMA), 15% Kolliphor® (Solutol®) HS15, and 80% sterile water at a dose concentration of 0.25 mg/mL. Doses for PO were formulated by dissolving the test compound in a mixture (v/v) of 90% Kolliphor® (Solutol®) HS15 and 10% pure ethanol at a dose concentration of 0.25 mg/mL.
Animals were housed in standard holding cages with food and water available ad libitum except for those used for PO dosing, which were fasted overnight prior to dosing. Prior to dosing and at each time point following dosing (5 min (IV only), 15 min, 30 min, 60 min, 120 min, 4 h, 8 h, 12 h, and 24 h), two animals were sacrificed and blood samples were taken in triplicate via cardiac puncture. Plasma was obtained by centrifuge and stored frozen until analyzed by LC-MS/MS using an AB Sciex™ QTrap® 5500 coupled to a Shimadzu Nexera X2 fitted with a Luna® Omega 1.6 μm Polar C18 100 Å, 50×2.1 mm, acquired from Phenomenex®. Samples were compared against a standard curve of the test compound at concentrations ranging from 10,000 to 0.3 ng/mL.
Pharmacokinetic parameters are calculated from mean concentration values using a non-compartmental analysis as described below and as apparent to those of ordinary skill in the art. Concentration at time zero (C0) for the IV was established by the extrapolation of log-linear regression using equal weighting on the first three sample time points. Area under the curve (AUC) values were calculated using linear trapezoidal integration.

Data set [2] in a line: Rat liver microsome stability. It is filed as in vitro ADME. The settings on record: Sprague-Dawley, pH 7.4; SD rat liver microsomes 0.5 mg/mL, NADPH, 37° C.; lower measurable bound 5. The protocol:
as §2

Setting [3] is: IV single dose 1 mg/kg, read-out: IV AUC.
The mark [4] stands for this setting: PO single dose 5 mg/kg, read-out: PO AUC.

As to `CC(C)(C)C(=O)n1nc(-c2cccn(CCC(=O)O)c2=O)cc1NCc1ccc(Cl)s1` [Compound 1, 3-[3-(5-{[(5-chlorothiophen-2-yl)methyl]amino}-1-(2,2-dimethylpropanoyl)-1H-pyrazol-3-yl)-2-oxo-1,2-dihydropyridin-1-yl]propanoic acid], the half-life at 20 µM in “Mouse plasma stability” is ≥ 3 h; in “Rat plasma stability”, 1.13 to 1.83 h. Also, the microsomal CLint at 1 µM in data set [1] was 5 to 11 µL/min/mg; in data set [2], ≤ 5 µL/min/mg. The C0 in “Mouse pharmacokinetics” (IV single dose 1 mg/kg) is 6800 ng/mL. Further, the AUC in “Mouse pharmacokinetics” (setting [3]) worked out at 8200 ng·h/mL; in the data set “Mouse pharmacokinetics” (setting [4]), 31000 ng·h/mL. In addition, the highest level in “Mouse pharmacokinetics” (PO single dose 5 mg/kg) (Cmax) was 3600 ng/mL.

With `O=C(O)CCn1cccc(-c2cc(NCc3ccc(Cl)s3)[nH]n2)c1=O` [Compound 2, 3-[3-(5-{[(5-chlorothiophen-2-yl)methyl]amino}-1H-pyrazol-3-yl)-2-oxo-1,2-dihydropyridin-1-yl]propanoic acid], the half-life at 20 µM in “Mouse plasma stability” and in the data set “Rat plasma stability” was ≥ 5 h throughout. The microsomal CLint at 1 µM in data set [1] and in data set [2] was ≤ 5 µL/min/mg throughout. Moreover, the C0 in the data set “Mouse pharmacokinetics” (IV single dose 1 mg/kg) is 6300 ng/mL. The AUC in “Mouse pharmacokinetics” (setting [3]) amounted to 850 ng·h/mL; in “Mouse pharmacokinetics” (setting [4]), 1300 ng·h/mL. Also, the maximum concentration (Cmax) in the data set “Mouse pharmacokinetics” (PO single dose 5 mg/kg) is 700 ng/mL.

Take `O=C(O)Cn1cccc(-c2cc(NCc3ccc(Cl)s3)[nH]n2)c1=O` [Compound 3, 2-[3-(5-{[(5-chlorothiophen-2-yl)methyl]amino}-1H-pyrazol-3-yl)-2-oxo-1,2-dihydropyridin-1-yl]acetic acid]: the half-life at 20 µM in “Mouse plasma stability” and in the data set “Rat plasma stability” was ≥ 5 h each time. For the same compound, the microsomal CLint at 1 µM in data set [1] and in data set [2] was ≤ 5 µL/min/mg throughout. Further, in “Mouse pharmacokinetics” (IV single dose 1 mg/kg), the C0 was 7200 ng/mL. In addition, the AUC in the data set “Mouse pharmacokinetics” (setting [3]) was 2200 ng·h/mL.

Regarding `CC(C)(C)C(=O)n1nc(-c2cccn(CC(=O)O)c2=O)cc1NCc1ccc(Cl)s1` [Compound 4, 2-[3-(5-{[(5-chlorothiophen-2-yl)methyl]amino}-1-(2,2-dimethylpropanoyl)-1H-pyrazol-3-yl)-2-oxo-1,2-dihydropyridin-1-yl]acetic acid], the figures for the half-life at 20 µM in the data set “Mouse plasma stability” and in “Rat plasma stability” were ≥ 5 h and 3 h, respectively. In addition, the microsomal CLint at 1 µM in data set [1] and in data set [2] was ≤ 5 µL/min/mg throughout. Moreover, the C0 in the data set “Mouse pharmacokinetics” (IV single dose 1 mg/kg) was 9500 ng/mL. In addition, the figures for the AUC in the data set “Mouse pharmacokinetics” (setting [3]) and in “Mouse pharmacokinetics” (setting [4]) were 6200 ng·h/mL and 15000 ng·h/mL, respectively. This compound displayed a Cmax in the data set “Mouse pharmacokinetics” (PO single dose 5 mg/kg) of 1500 ng/mL.

Take `CC(C)(C)C(=O)n1nc(-c2cccn(CCCC(=O)O)c2=O)cc1NCc1ccc(Cl)s1` [Compound 5, 4-[3-(5-{[(5-chlorothiophen-2-yl)methyl]amino}-1-(2,2-dimethylpropanoyl)-1H-pyrazol-3-yl)-2-oxo-1,2-dihydropyridin-1-yl]butanoic acid]: the half-life at 20 µM came to 3.83 h in the data set “Mouse plasma stability” and 1.13 h in “Rat plasma stability”. In addition, the intrinsic metabolic clearance (microsomal CLint) at 1 µM in data set [1] turned out to be 29 µL/min/mg; in data set [2], 10 µL/min/mg.

On to `CC(C)(C)C(=O)n1nc(-c2cccn(CCC(N)=O)c2=O)cc1NCc1ccc(Cl)s1` [Compound 8, 3-[3-(5-{[(5-chlorothiophen-2-yl)methyl]amino}-1-(2,2-dimethylpropanoyl)-1H-pyrazol-3-yl)-2-oxo-1,2-dihydropyridin-1-yl]propanamide], for which the half-life at 20 µM in “Mouse plasma stability” is 2.67 h; in “Rat plasma stability”, 1.13 h. Besides, the microsomal CLint at 1 µM in data set [1] was found to be 100 µL/min/mg. Moreover, in the data set “Mouse pharmacokinetics” (IV single dose 1 mg/kg), the C0 was 1700 ng/mL. The AUC in “Mouse pharmacokinetics” (setting [3]) was 530 ng·h/mL.

As to `CC(C)(N)Cn1cccc(-c2cc(NCc3ccc(Cl)s3)n(C(=O)c3ccoc3)n2)c1=O` [Compound 9, 1-(2-amino-2-methylpropyl)-3-(5-{[(5-chlorothiophen-2-yl)methyl]amino}-1-(furan-3-carbonyl)-1H-pyrazol-3-yl)-1,2-dihydropyridin-2-one], the figures for the half-life at 20 µM in “Mouse plasma stability” and in the data set “Rat plasma stability” were 2.67 h and 1.13 h, respectively. Also, the results for the microsomal CLint at 1 µM in data set [1] and in data set [2] were 11 µL/min/mg and ≤ 5 µL/min/mg, respectively.

On to `CCC(C)(C)C(=O)n1nc(-c2cccn(CCC(=O)O)c2=O)cc1NCc1ccc(Cl)s1` [Compound 11, 3-[3-(5-{[(5-chlorothiophen-2-yl)methyl]amino}-1-(2,2-dimethylbutanoyl)-1H-pyrazol-3-yl)-2-oxo-1,2-dihydropyridin-1-yl]propanoic acid], for which the half-life at 20 µM in “Mouse plasma stability” and in the data set “Rat plasma stability” was ≥ 5 h in each case. In addition, the intrinsic clearance (microsomal CLint) at 1 µM in data set [1] turned out to be 31 µL/min/mg; in data set [2], 14 µL/min/mg. The C0 in “Mouse pharmacokinetics” (IV single dose 1 mg/kg) was 7400 ng/mL. In the data set “Mouse pharmacokinetics” (setting [3]), the AUC was 3900 ng·h/mL.

Turning to `O=C(O)CCn1cccc(-c2cc(NCc3ccc(Cl)s3)n(C(=O)c3ccoc3)n2)c1=O` [Compound 12, 3-[3-(5-{[(5-chlorothiophen-2-yl)methyl]amino}-1-(furan-3-carbonyl)-1H-pyrazol-3-yl)-2-oxo-1,2-dihydropyridin-1-yl]propanoic acid], the half-life at 20 µM stood at 3.67 h in “Mouse plasma stability” and 3 h in the data set “Rat plasma stability”. For the same compound, the intrinsic metabolic clearance (microsomal CLint) at 1 µM in data set [1] is ≤ 5 µL/min/mg. Moreover, in the data set “Mouse pharmacokinetics” (IV single dose 1 mg/kg), the C0 is 4200 ng/mL. Also, in the data set “Mouse pharmacokinetics” (setting [3]), the AUC came out at 1000 ng·h/mL.

The microsomal CLint is the capacity of the preparation to metabolise the compound, expressed as a volume cleared per time. In general, AUC refers to the area under the concentration-time curve, a measure of exposure. As a reminder, the Cmax is the peak of the concentration-time curve.
